Molecules are shown by their SMILES.

The nature of the data set: GC/MS analysis of incorporation of methyl jasmonate in nanocarriers. Format: physicochemical. How it is done: The class of dendrimers used was PAMAM. […] The experimental data was obtained using a GC with a column temperature of 50° C., the injection temperature of 250° C., Flow control mode linear, total flow 50.0 mL/min., and column flow of 1.70 mL/min. The percentage relative to the incorporation of methyl jasmonate inside β-CD was 98-99% and for dendrimer PAMAM it was more than 95%. Comparing peak 1 with 2, peak 2 is methyl Jasmonate alone and peak 1 is the inclusion compounds formed. In both cases peak 1 is clearly different and proves the molecular association.

Consider `CC/C=C\CC1C(=O)CCC1CC(=O)OC` (centres unmarked) [methyl jasmonate], for which the “percentage relative to the incorporation of methyl jasmonate” value (dendrimer PAMAM) is listed as “more than 95%” and the “percentage relative to the incorporation of methyl jasmonate” value (inside β-CD) is listed as 98-99%.

The record behind these values is patent publication US20160354312A1, “FORMULATIONS OF JASMONATES AND NANOCARRIERS OR MICROCARRIERS” (Nanocare Technologies, Inc., priority 2008, published 2016).
